Patent US20230141101A1, “PDE4 INHIBITOR COMPOUND AND MEDICAL USE THEREOF” (Suzhou Longbotai Pharmaceuticals Co., Ltd., priority 2020, published 2023)

Experiments:
Format in all cases: biochemical
Details in all cases: 20 nM
PDE4A1A = target: T1, PDE4A1A (Homo sapiens, UniProt P27815); test: PDE4 inhibitory activity assay (FAM-cAMP enzymatic reaction), PDE4A1A
T1 construct: purchased BPS 60040
Experimental: (§1) The compounds of the present disclosure were tested for their inhibitory activity (IC50 value) against PDE4A1A, PDE4B1, and PDE4D2.
(§2) Positive compound: Trequinsin (Sigma, Cat No. T20S7).
(§3) Instrument: Wallac Victor Muti-lable counter (Pekin Elmer) Steps of assay:
(§4) PDE enzymatic reaction; • 1) PDE was dissolved in 1× reaction solution to prepare 2× enzyme solution; • 2) FAM-cAMP was dissolved in 1× reaction solution to prepare 2× substrate solution; • 3) Corresponding volume of the compound in DMSO was transferred to the reaction plate through Echo 550; • 4) 2× enzyme solution was added into the corresponding wells of the reaction plate and incubated with the compound solution for 15 minutes at room temperature; • 5) 2× substrate solution was added into the corresponding well of the reaction plate to initiate the reaction; • 6) After the reaction plate was incubated at room temperature for 30 min, the reaction was terminated by adding reaction stopping solution. The reaction plate was incubated at room temperature for another 60 minutes;
(§5) Inhibition rates were calculated with Excel; and IC50 for each compound was calculated with Graphpad prism.

PDE4B1 = target: T2, PDE4B1 (Homo sapiens, UniProt Q07343); test: PDE4 inhibitory activity assay (FAM-cAMP enzymatic reaction), PDE4B1
T2 construct: purchased BPS 60041
T2 sequence (Q07343 whole entry): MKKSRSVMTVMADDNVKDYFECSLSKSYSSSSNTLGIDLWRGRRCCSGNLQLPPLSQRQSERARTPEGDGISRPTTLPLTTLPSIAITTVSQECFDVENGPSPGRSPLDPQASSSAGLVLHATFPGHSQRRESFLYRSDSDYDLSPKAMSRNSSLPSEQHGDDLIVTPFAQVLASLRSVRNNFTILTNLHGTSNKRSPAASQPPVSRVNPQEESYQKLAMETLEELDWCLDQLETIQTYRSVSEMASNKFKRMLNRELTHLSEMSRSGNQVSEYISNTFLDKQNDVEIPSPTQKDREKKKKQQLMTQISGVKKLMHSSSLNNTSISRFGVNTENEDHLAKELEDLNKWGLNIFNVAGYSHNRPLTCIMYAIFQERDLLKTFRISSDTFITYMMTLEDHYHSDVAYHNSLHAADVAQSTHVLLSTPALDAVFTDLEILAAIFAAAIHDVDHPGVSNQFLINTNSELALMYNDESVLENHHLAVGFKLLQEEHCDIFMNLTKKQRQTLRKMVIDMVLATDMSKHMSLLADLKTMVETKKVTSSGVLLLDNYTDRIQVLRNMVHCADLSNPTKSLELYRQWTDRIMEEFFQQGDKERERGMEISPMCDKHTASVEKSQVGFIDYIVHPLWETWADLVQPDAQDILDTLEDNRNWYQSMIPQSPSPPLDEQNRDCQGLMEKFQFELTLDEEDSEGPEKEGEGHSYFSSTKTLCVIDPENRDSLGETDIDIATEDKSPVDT
Experimental: as §1, §2, §3, §4, §5

PDE4D2 = PDE4D2 (Homo sapiens, UniProt Q08499); test: PDE4 inhibitory activity assay (FAM-cAMP enzymatic reaction), PDE4D2
PDE4D2, sequence (Q08499 303-809): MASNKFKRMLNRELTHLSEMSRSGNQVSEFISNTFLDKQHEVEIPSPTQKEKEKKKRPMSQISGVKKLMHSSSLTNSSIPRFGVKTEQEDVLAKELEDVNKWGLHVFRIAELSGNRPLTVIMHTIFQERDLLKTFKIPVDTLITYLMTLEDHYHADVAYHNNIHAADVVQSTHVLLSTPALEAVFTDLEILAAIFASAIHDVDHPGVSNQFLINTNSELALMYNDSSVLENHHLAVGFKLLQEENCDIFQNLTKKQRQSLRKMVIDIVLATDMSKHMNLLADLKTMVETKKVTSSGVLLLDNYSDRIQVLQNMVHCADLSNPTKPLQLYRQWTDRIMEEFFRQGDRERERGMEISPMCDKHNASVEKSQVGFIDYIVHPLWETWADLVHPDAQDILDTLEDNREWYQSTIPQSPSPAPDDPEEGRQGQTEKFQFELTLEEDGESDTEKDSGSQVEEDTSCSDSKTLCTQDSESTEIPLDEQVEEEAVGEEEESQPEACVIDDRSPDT
Experimental: as §1, §2, §3, §4, §5

T1 sequence (P27815 1-647 isoform P27815-4): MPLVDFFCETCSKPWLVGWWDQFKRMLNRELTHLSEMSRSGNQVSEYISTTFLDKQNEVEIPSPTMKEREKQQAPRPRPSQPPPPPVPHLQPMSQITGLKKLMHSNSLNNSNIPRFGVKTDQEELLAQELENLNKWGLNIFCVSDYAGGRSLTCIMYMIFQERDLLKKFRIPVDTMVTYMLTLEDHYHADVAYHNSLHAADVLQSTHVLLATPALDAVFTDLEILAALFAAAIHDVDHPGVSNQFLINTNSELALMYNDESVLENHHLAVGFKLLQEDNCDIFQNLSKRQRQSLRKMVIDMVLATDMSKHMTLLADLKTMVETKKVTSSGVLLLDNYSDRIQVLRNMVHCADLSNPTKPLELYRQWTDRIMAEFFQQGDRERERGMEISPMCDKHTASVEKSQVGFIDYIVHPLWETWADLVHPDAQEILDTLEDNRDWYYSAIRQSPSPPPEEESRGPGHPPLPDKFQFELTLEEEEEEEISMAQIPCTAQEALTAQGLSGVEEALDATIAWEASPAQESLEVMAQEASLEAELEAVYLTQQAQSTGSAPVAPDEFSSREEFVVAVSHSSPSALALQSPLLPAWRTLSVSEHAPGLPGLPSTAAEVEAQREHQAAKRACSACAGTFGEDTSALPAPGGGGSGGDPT

SMILES | PDE4 A1 inhibitory effect at 20 nM (PDE4A1A) | PDE4 B1 inhibitory effect at 20 nM (PDE4B1) | PDE4 D2 inhibitory effect at 20 nM (PDE4D2)
CCOc1nc([C@@H](CS(C)(=O)=O)n2c(=O)n(C)c3cc(-c4ccccc4OC)ccc32)ccc1OC [Ex. 144, (S)-1-(1-(6-ethoxy-5-methoxypyridin-2-yl)-2-(methylsulfonyl)ethyl)-5-(2-methoxyphenyl)-3-methyl-1H-benzo[d]imidazol-2(3H)-one] | + | + | +
CCOc1nc([C@@H](CS(C)(=O)=O)n2c(=O)n(CC(F)F)c3c(C)c(-c4ccccc4C)cnc32)ccc1OC(C)C [Ex. 72, (S)-1-(2,2-difluoroethyl)-3-(1-(6-ethoxy-5-isopropoxypyridin-2-yl)-2-(methylsulfonyl)ethyl)-7-methyl-6-(o-methylphenyl)-1H-imidazo[4,5-b]pyridin-2(3H)-one] | + | + | +
CCOc1nc([C@@H](CS(C)(=O)=O)n2c(=O)[nH]c3cc(-c4ccccc4OC)ccc32)ccc1OC [Ex. 143, (S)-1-(1-(6-ethoxy-5-methoxypyridin-2-yl)-2-(methylsulfonyl)ethyl)-5-(2-methoxyphenyl)-1H-benzo[d]imidazol-2(3H)-one] | + | + | +
CCOc1nc([C@@H](CS(C)(=O)=O)n2c(=O)[nH]c3c(C)c(Br)cnc32)ccc1OC [Ex. 73, (S)-3-(1-(6-ethoxy-5-methoxypyridin-2-yl)-2-(methylsulfonyl)ethyl)-6-bromo-7-methyl-1H-imidazo[4,5-b]pyridin-2(3H)-one] | + | + | +
CCOc1nc([C@@H](CS(C)(=O)=O)n2c(=O)[nH]c3c(C)c(-c4ccc(OC)cc4F)cnc32)ccc1OC [Ex. 43, (S)-6-(2-fluoro-4-methoxyphenyl)-3-(1-(6-ethoxy-5-methoxypyridin-2-yl)-2-(methylsulfonyl)ethyl)-7-methyl-1H-imidazo[4,5-b]pyridin-2(3H)-one] | + | + | +
CCOc1nc([C@@H](CS(C)(=O)=O)n2c(=O)n(CC(F)F)c3c(C)c(-c4ccc(F)cc4)cnc32)ccc1OC [Ex. 58, (S)-1-(2,2-difluoroethyl)-3-(1-(6-ethoxy-5-methoxypyridin-2-yl)-2-(methylsulfonyl)ethyl)-6-(4-fluorophenyl)-7-methyl-1H-imidazo[4,5-b]pyridin-2(3H)-one] | + | + | +
CCOc1nc([C@@H](CS(C)(=O)=O)n2c(=O)[nH]c3cc(-c4cc(C)ccc4F)cnc32)ccc1OC [Ex. 113, (S)-6-(2-fluoro-5-methylphenyl)-3-(1-(6-ethoxy-5-methoxypyridin-2-yl)-2-(methylsulfonyl)ethyl)-1H-imidazo[4,5-b]pyridin-2(3H)-one] | + | + | +
CCOc1nc([C@@H](CS(C)(=O)=O)n2c(=O)[nH]c3cc(-c4ccccc4F)ccc32)ccc1OC [Ex. 132, (S)-1-(1-(6-ethoxy-5-methoxypyridin-2-yl)-2-(methylsulfonyl)ethyl)-5-(2-fluorophenyl)-1H-benzo[d]imidazol-2(3H)-one] | + | + | +
CCOc1nc([C@H](CS(C)(=O)=O)n2c(=O)[nH]c3cc(-c4ccccc4OC)ccc32)ccc1OC [Ex. 145, (R)-1-(1-(6-ethoxy-5-methoxypyridin-2-yl)-2-(methylsulfonyl)ethyl)-5-(2-methoxyphenyl)-1H-benzo[d]imidazol-2(3H)-one] | − | − | −
CCOc1nc([C@@H](CS(C)(=O)=O)n2c(=O)n(CCOC)c3c(C)c(-c4ccccn4)cnc32)ccc1OC [Ex. 20, (S)-3-(1-(6-ethoxy-5-methoxypyridin-2-yl)-2-(methylsulfonyl)ethyl)-1-(2-methoxyethyl)-7-methyl-6-(pyridin-2-yl)-1H-imidazo[4,5-b]pyridin-2(3H)-one] | + | + | +
CCOc1nc([C@@H](CS(C)(=O)=O)n2c(=O)[nH]c3c(C)c(-c4cc(OC)ccc4F)cnc32)ccc1OC [Ex. 41, (S)-6-(2-fluoro-5-methoxyphenyl)-3-(1-(6-ethoxy-5-methoxypyridin-2-yl)-2-(methylsulfonyl)ethyl)-7-methyl-1H-imidazo[4,5-b]pyridin-2(3H)-one] | + | + | +
CCOc1nc([C@@H](CS(C)(=O)=O)n2c(=O)[nH]c3cc(-c4ccccc4CC)ccc32)ccc1OC [Ex. 150, (S)-1-(1-(6-ethoxy-5-methoxypyridin-2-yl)-2-(methylsulfonyl)ethyl)-5-(2-ethylphenyl)-1H-benzo[d]imidazol-2(3H)-one] | + | + | +

Results, then the compound that gave them:

PDE4 A1 inhibitory effect at 20 nM (PDE4A1A) | PDE4 B1 inhibitory effect at 20 nM (PDE4B1) | PDE4 D2 inhibitory effect at 20 nM (PDE4D2) | SMILES
+ | + | + | CCOc1nc([C@@H](CS(C)(=O)=O)n2c(=O)[nH]c3cc(-c4ccccn4)ccc32)ccc1OC [Ex. 194, (S)-1-(1-(6-ethoxy-5-methoxypyridin-2-yl)-2-(methylsulfonyl)ethyl)-5-(pyridin-2-yl)-1H-benzo[d]imidazol-2(3H)-one]
+ | + | + | CCOc1nc([C@@H](CS(C)(=O)=O)n2c(=O)[nH]c3cc(-c4ccc(F)cc4OC)ccc32)ccc1OC [Ex. 188, (S)-5-(4-fluoro-2-methoxyphenyl)-1-(1-(6-ethoxy-5-methoxypyridin-2-yl)-2-(methylsulfonyl)ethyl)-1H-benzo[d]imidazol-2(3H)-one]
+ | + | + | CCOc1nc([C@@H](CS(C)(=O)=O)n2c(=O)n(C)c3cc(-c4cc(F)ccc4OC)ccc32)ccc1OC [Ex. 187, (S)-5-(5-fluoro-2-methoxyphenyl)-1-(1-(6-ethoxy-5-methoxypyridin-2-yl)-2-(methylsulfonyl)ethyl)-3-methyl-1H-benzo[d]imidazol-2(3H)-one]
+ | + | + | CCOc1nc([C@@H](CS(C)(=O)=O)n2c(=O)[nH]c3cc(-c4ccc(F)cc4F)ccc32)ccc1OC [Ex. 156, (S)-5-(2,4-difluorophenyl)-1-(1-(6-ethoxy-5-methoxypyridin-2-yl)-2-(methylsulfonyl)ethyl)-1H-benzo[d]imidazol-2(3H)-one]
+ | + | + | CCOc1nc([C@@H](CS(C)(=O)=O)n2c(=O)n(CCOC)c3cc(-c4ccccn4)ccc32)ccc1OC [Ex. 198, (S)-1-(1-(6-ethoxy-5-methoxypyridin-2-yl)-2-(methylsulfonyl)ethyl)-3-(2-methoxyethyl)-5-(pyridin-2-yl)-1H-benzo[d]imidazol-2(3H)-one]
+ | + | + | CCOc1nc([C@@H](CS(C)(=O)=O)n2c(=O)[nH]c3cc(-c4cccc(F)c4F)ccc32)ccc1OC [Ex. 152, (S)-5-(2,3-difluorophenyl)-1-(1-(6-ethoxy-5-methoxypyridin-2-yl)-2-(methylsulfonyl)ethyl)-1H-benzo[d]imidazol-2(3H)-one]
+ | + | + | CCOc1nc([C@@H](CS(C)(=O)=O)n2c(=O)[nH]c3cc(-c4cc(OC)ccc4F)ccc32)ccc1OC [Ex. 181, (S)-5-(2-fluoro-5-methoxyphenyl)-1-(1-(6-ethoxy-5-methoxypyridin-2-yl)-2-(methylsulfonyl)ethyl)-1H-benzo[d]imidazol-2(3H)-one]
+ | + | + | CCOc1nc([C@@H](CS(C)(=O)=O)n2c(=O)n(C)c3cc(-c4cccc(F)c4F)ccc32)ccc1OC [Ex. 153, (S)-5-(2,3-difluorophenyl)-1-(1-(6-ethoxy-5-methoxypyridin-2-yl)-2-(methylsulfonyl)ethyl)-3-methyl-1H-benzo[d]imidazol-2(3H)-one]
+ | + | + | CCOC(=O)c1ccc2c(c1)[nH]c(=O)n2[C@H](CS(C)(=O)=O)c1ccc(OC)c(OCC)n1 [Ex. 212, (S)-ethyl 1-(1-(6-ethoxy-5-methoxypyridin-2-yl)-2-(methylsulfonyl)ethyl)-2-oxo-2,3-dihydro-1H-benzo[d]imidazole-5-carboxylate]
